According to patent US20250221413A1, “Use and Preparation Method of Sulfoxamyl, and Oxidation System” (priority 2023, published 2025):
≈ marks a conversion by molar mass, not a printed value. Where “and” joins values, the source holds several entries; their conditions need not be identical. Equal entries are not always repeated.

Columns and labels:
[1] = Half-life test (hydrolysis in neutral distilled water, HPLC); format: physicochemical
Description: A 98% sulfoxamyl sample was quantitatively dissolved in neutral distilled water, and samples were taken and injected at certain time intervals under HPLC detection. Data were collected according to the area normalization method based on the integrated sulfoxamyl peak area ratio.

[2] = tested on: Meloidogyne incognita eggs; assay: Inhibitory effect on hatching of Meloidogyne incognita eggs; format: in vivo
Description: Materials: the tested nematodes were collected from three different areas, namely cucumber crops in Dawenkou Town, Tai'an City, Shandong Province, and were all identified as southern root-knot nematodes (Meloidogyne incognita). The diseased roots were washed, cut into small sections of 0.5 cm to 1 cm, rinsed in 1% NaClO solution for about 30 s to 60 s, and rinsed with 200-mesh and 500-mesh sieves to collect nematode eggs for later use.
The agent was 98% sulfoxamyl technical, and the comparison agents were 96% oxamyl technical and 87% fosthiazate technical.

[3] = Meloidogyne incognita, 168 h, egg hatching, 7 d

In the case of `CNC(=O)O/N=C(/C(=O)N(C)C)S(C)(=O)=O` [Sulfoxamyl, N,N-dimethyl-2-[[[(methylamino)carbonyl]oxy]imino]-2-(methylsulfonyl)acetamide], the “time to complete decomposition” value ([1]; neutral conditions) is reported as “about 8 h”, the “Changes in ratio of sulfoxamyl peak area under HPLC” value (“Changes in ratio” below) ([1]; neutral distilled water, 25° C., Time 0 h) is reported as 99.86% and the “Changes in ratio” value ([1]; neutral distilled water, 25° C., Time 0.5 h) is reported as 73%. The “Changes in ratio” value ([1]; neutral distilled water, 25° C., Time 1 h) was 63%, the “Changes in ratio” value ([1]; neutral distilled water, 25° C., Time 2 h) was 48% and the “Changes in ratio” value ([1]; neutral distilled water, 25° C., Time 3 h) was 32%. For the same molecule, the “Changes in ratio” value ([1]; neutral distilled water, 25° C., Time 4 h) was 20%, the “Changes in ratio” value ([1]; neutral distilled water, 25° C., Time 5 h) was 11% and the “Changes in ratio” value ([1]; neutral distilled water, 25° C., Time 6 h) was 5%. The “Changes in ratio” value ([1]; neutral distilled water, 25° C., Time 7 h) was 4%, the “Changes in ratio” value ([1]; neutral distilled water, 25° C., Time 8 h) was 3% and the half-life ([1]; neutral distilled water, neutral aqueous solution, 25° C.) was 2 h. For the same molecule, the “Number of hatched eggs/7 d” value ([2]; 6.25 mg/L, 7 d) was 102 and 92 and 96, the “Number of unhatched eggs/7 d” value ([2]; 6.25 mg/L, 7 d) was 31 and 25 and 33 and the “Number of hatched eggs/7 d” value ([2]; 12.5 mg/L, 7 d) was 83 and 85 and 88. The “Number of unhatched eggs/7 d” value ([2]; 12.5 mg/L, 7 d) was 32 and 33 and 40, the “Number of hatched eggs/7 d” value ([2]; 25 mg/L, 7 d) was 85 and 79 and 86 and the “Number of unhatched eggs/7 d” value ([2]; 25 mg/L, 7 d) was 45 and 41 and 38. The “Number of hatched eggs/7 d” value ([2]; 50 mg/L, 7 d) was 57 and 55 and 49, the “Number of unhatched eggs/7 d” value ([2]; 50 mg/L, 7 d) was 81 and 75 and 77 and the “Number of hatched eggs/7 d” value ([2]; 100 mg/L, 7 d) was 44 and 40 and 42. For the same molecule, the “Number of unhatched eggs/7 d” value ([2]; 100 mg/L, 7 d) was 93 and 85 and 88, the IC50 [2, 3] was 59.5 µg/mL (≈ 237 µM) and the IC90 [2, 3] was 511 µg/mL (≈ 2030 µM). For the same molecule, the “inhibitory effect on hatching of nematode eggs, in words” value ([2]; in vivo) was “desirable inhibitory effect”.
